Laboratory results taken from paper PMC11640089, “JRM-28, a Novel HDAC2 Inhibitor, Upregulates Plasticity-Associated Proteins in Hippocampal Neurons and Enhances Morphological Plasticity via Activation of CREB: Implications for Alzheimer’s Disease” (Cells, 2024).
Where “and” joins values, the source holds several entries; their conditions need not be identical. Equal values may be shown once. Read-outs that look alike come from different tables or passages of the source. Blank lines part the entries; values can stand above or below the compound they belong to.

How the values were obtained:
HDAC2 = HDAC2 (Homo sapiens, UniProt Q92769); assay: HDAC2 inhibition assay, luminometric method (HDAC-Glo I/II); assay type: biochemical; design: purchased BPS Bioscience 50002; settings: HDAC2 0.5 nM, read-out: IC50 HDAC2 inhibition (luminescence)
Experimental: HDAC2 inhibition assay was performed by either the luminometric or fluorimetric method applying the following procedures. The table (Table 1) represents the details of different HDAC proteins and antibodies used in all biochemical assays.
HDAC2 inhibition assay was performed by HDAC-Glo™ I/II Assays and Screening System (Catalog# G6420, Promega Corporation, Madison, WI, USA) by the luminometric method according to the manufacturer’s protocol. […] The HDAC-2 inhibition assay was performed as previously described to determine IC values. In brief, the purified HDAC2 was diluted in HDAC assay buffer (provided with the HDAC-Glo™ I/II Assays and Screening System) to the same concentration based on their calculated molar mass. […] Next, 10 µL of JRM-28 after serial dilution was added to 10 µL of diluted HDAC2 in such a way that the final HDAC2 concentration was 0.5 nM in each well of a 384-well microplate (Greiner, Kremsmünster, Austria). After 30 min of incubation, 20 µL of the HDAC-Glo substrate/developing reagent was added to each well according to the manufacturer’s instructions. The 384-well plate was then agitated on an orbital shaker for the mixing of components in each well for another 30 min at room temperature. Finally, luminescence was measured using a POLARstar Omega plate reader (BMG Labtech, Ortenberg, Germany).

HDAC6 = biological target: T1, HDAC6 (Homo sapiens, UniProt Q9UBN7); assay: Fluorimetric HDAC inhibition assay, HDAC6; assay type: biochemical; settings: reduced with DTT
T1 construct: purchased BPS Bioscience 50056
T1 sequence (Q9UBN7 1-1215): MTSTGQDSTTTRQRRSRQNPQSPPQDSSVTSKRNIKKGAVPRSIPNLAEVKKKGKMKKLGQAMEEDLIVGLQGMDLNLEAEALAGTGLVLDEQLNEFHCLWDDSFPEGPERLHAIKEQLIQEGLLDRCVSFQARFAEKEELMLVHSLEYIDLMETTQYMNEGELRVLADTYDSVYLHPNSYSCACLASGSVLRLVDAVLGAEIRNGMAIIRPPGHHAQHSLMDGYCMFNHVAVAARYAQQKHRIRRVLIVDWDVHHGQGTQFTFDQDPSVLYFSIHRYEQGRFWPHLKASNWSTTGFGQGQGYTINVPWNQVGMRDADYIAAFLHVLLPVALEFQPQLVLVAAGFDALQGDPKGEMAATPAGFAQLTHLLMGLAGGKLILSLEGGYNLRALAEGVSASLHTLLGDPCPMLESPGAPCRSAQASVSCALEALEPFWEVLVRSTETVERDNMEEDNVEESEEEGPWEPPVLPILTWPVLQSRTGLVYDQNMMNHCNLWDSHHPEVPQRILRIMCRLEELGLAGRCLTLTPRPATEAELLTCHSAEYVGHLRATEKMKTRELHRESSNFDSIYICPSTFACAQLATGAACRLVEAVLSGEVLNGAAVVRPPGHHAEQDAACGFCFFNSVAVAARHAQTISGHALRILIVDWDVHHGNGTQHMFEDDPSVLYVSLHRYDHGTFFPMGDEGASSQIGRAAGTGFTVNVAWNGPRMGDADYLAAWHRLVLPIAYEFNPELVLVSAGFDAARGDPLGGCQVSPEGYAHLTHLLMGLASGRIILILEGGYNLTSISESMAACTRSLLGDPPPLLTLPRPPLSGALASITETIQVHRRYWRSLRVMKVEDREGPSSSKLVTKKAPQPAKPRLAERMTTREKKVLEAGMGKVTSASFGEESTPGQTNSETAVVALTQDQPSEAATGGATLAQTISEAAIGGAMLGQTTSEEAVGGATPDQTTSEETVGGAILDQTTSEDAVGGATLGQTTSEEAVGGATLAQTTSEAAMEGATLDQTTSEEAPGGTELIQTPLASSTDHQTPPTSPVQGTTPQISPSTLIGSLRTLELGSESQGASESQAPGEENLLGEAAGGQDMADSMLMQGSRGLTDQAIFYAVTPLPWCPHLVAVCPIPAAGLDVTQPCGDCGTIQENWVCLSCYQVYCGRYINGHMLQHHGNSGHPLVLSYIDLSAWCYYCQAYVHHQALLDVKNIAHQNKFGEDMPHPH
Experimental: The inhibition of HDAC1, 2, 3, and 6 by JRM-28 was fluorometrically measured using the HDAC Fluorogenic Assay Kit (Catalog# 50034) by BPS bioscience. Purified recombinant human HDAC1 (Cat# 50051), HDAC3 (Cat# 50003), and HDAC6 (Cat# 50056) were also obtained from BPS Bioscience. The enzyme inhibition assay was performed according to the manufacturer’s protocol. […] Purified recombinant HDAC2 (supplied with the fluorogenic kit) was diluted to 6 ng/µL (5 µL/well with the supplied HDAC assay buffer). HDAC 1, 3, and 6 were also diluted to the optimized concentration (5 µL/well) with the HDAC assay buffer. The activity of JRM-28 was measured along with DTT control and DMSO as blank. After adding 5 µL of the diluted HDAC enzymes in designated wells, the 96-well plate (supplied with the kit) was incubated at 37 °C. Then, the reaction was initiated by adding 5 µL of diluted HDAC substrate to each well, followed by another incubation at 37 °C for 30 min. Next, 50 µL of the developer reagent was added to each well and incubated at room temperature for another 15 min. Finally, fluorescence was measured by a microplate absorbance spectrophotometer (PerkinElmer Enspire 2300 Multilabel Multimode Microplate Reader) with an excitation at λ = 485 nm and detection at λ = 528 nm.

Sequence of HDAC2 (Q92769 whole entry): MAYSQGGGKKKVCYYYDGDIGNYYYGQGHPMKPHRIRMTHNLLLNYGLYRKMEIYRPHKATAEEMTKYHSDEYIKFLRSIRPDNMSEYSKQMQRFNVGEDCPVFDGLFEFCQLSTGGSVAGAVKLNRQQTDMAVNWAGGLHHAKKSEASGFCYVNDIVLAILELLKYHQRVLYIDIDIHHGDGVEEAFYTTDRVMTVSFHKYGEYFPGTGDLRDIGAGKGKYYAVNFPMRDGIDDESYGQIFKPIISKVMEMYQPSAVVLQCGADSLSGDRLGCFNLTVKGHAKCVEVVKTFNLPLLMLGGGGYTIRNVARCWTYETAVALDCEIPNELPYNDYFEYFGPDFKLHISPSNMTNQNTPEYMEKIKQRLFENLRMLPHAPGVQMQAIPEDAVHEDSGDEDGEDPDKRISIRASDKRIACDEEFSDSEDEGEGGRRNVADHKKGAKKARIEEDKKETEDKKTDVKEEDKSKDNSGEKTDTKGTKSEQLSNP

IC50 (HDAC2; in the presence of DTT (reduced)): 2.7 µM and 2.71 µM
SMILES: CN(C(=O)C[C@@H](O)/C=C/CCS)c1ccccc1 [JRM-28b]

IC50 (HDAC2; without DTT (non-reduced dimer)): 12.9 µM
SMILES: CN(C(=O)CC(O)/C=C/CCSSCC/C=C/C(O)CC(=O)N(C)c1ccccc1)c1ccccc1 (stereo not drawn) [JRM-20, (4E,4’E)-7,7’-disulfanediylbis(3-hydroxy-N-methyl-N-phenylhept-4-enamide)]

Hill coefficient HDAC6 (fluorimetric) (HDAC6): −5.116
SMILES: CN(C(=O)C[C@@H](O)/C=C/CCS(=O)O)c1ccccc1 [JRM-28a]
